Experimental data published in patent publication US7214669B2, “Tetracycline derivatives and methods of use thereof” (Tetragenex Pharmaceuticals, Inc., priority 2001, dated 2007).
Several values for one entry are separate records, joined by “and”; a condition that tells them apart may be missing. Equal entries are not always repeated.

Tests used:
[1] = biological target: T1, Human recombinant MMP1 (Homo sapiens, UniProt P03956); assay: MMP1 (Collagenase-1) inhibition, 14C collagen release; type: biochemical; settings: 35° C., 5 hours; read-out: MMP-1 inhibitory activity, IC50
T1 sequence (P03956 100-469): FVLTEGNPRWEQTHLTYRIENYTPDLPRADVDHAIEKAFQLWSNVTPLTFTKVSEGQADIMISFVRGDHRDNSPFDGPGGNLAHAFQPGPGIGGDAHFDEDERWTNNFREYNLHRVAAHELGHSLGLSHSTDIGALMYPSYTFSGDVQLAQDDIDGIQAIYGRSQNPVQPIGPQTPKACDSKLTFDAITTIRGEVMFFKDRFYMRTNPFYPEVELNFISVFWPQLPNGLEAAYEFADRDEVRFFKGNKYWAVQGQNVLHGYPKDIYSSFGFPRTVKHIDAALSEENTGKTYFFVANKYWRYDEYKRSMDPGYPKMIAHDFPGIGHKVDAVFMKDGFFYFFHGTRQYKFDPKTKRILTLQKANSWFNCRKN
Method: Protocol for Measuring MMP1 (Collagenase-1) Inhibition by Tetracycline Derivatives
MMP1 activity was determined by the release of soluble ^14C labelled collagen fragments from ^14C acetylated rat skin type I collagen (Methods in Enzymology 80 711, 1981).
• 100 μg ^14C labelled rat skin type I collagen (5–6000 dpm) • 50 mM Tris HCl pH 7.9 • 15 mM CaCl2 0.02% azide • Human recombinant MMP1 3–4 nM • ±Tetracycline (up to 1 mM) in a total volume of 300 μl.
Incubations were at 35° C. for 5 hours. Uncleaved collagen fibrils (which form within the first 10 minutes) were removed by centrifugation at 10,000 g, 4° C., 10 minutes. 200 μl supernatant were counted in Packard Opti Phase Supermix scintillation fluid using a scintillation counter. Only data derived from within the linear part of the assay (10–70% lysis of the collagen) were utilized. Based on percentage inhibition of the activity of MMP1 alone by a range of concentrations of each sample, the IC50 value for each tetracycline was calculated by linear regression analysis.

[2] = biological target: T2, MMP2 (Gelatinase A) (Homo sapiens, UniProt P08253); assay: MMP2 (Gelatinase A) inhibition, 14C gelatin release; type: biochemical; settings: 37° C., 16 hours; read-out: MMP-2 inhibitory activity, IC50
T2 sequence (P08253 110-660): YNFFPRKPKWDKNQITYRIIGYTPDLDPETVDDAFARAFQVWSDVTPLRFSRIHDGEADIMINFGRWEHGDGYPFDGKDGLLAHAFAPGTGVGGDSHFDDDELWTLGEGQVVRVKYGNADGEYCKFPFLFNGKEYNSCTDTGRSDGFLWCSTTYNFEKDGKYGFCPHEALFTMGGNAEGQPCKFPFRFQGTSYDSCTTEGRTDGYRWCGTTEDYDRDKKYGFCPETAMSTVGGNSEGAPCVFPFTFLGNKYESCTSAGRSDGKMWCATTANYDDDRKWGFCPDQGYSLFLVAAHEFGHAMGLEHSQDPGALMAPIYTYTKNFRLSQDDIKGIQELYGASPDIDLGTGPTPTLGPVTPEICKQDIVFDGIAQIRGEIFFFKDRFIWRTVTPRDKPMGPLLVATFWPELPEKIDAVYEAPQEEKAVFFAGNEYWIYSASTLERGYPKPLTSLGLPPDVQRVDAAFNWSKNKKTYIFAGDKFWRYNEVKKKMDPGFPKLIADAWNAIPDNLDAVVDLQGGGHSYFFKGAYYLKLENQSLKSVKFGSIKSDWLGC

[3] = biological target: Human recombinant MMP3 (Homo sapiens, UniProt P08254); assay: MMP3 (Stromelysin 1) inhibition, 14C casein release; type: biochemical; settings: 37° C., 16 hours; read-out: MMP-3 inhibitory activity, IC50
Method: Protocol for Measuring MMP3 (Stromelysin 1) Inhibition
• 100 μg ^14C casein (7000 dpm) • 50 mM Tris HCl, pH 7.9 • 15 mM CaCl2, 0.02% azide • Human recombinant MMP3, 0.25–1.0 nM • ±tetracycline (up to 1 mM) in a total volume of 250 μl.
Incubations were at 37° C. for 16 hours. The reaction was stopped by the addition of 500 μl cold 18% TCA and standing on ice for 15 minutes. TCA precipitates were removed by centrifugation at 10,000 g for 10 minutes at 4° C. and 200 μl supernatant was taken for scintillation counting. Only data derived from within the linear part of the assay (10–60% lysis) were utilized. The percentage inhibition of MMP3 by each concentration of the candidate tetracycline was plotted to derive the IC50 value, using linear regression analysis.

[4] = biological target: Human recombinant MMP9 (Homo sapiens, UniProt P14780); assay: MMP9 (Gelatinase B) inhibition, 14C gelatin release; type: biochemical; settings: 37° C., 16 hours; read-out: MMP-9 inhibitory activity, IC50
[5] = biological target: Human recombinant MMP14 (Homo sapiens, UniProt P50281); assay: MMP14 (MTI-MMP) inhibition, 14C collagen release; type: biochemical; settings: 35° C., 15 hours; read-out: MMP-14 inhibitory activity, IC50
[6] = tested on: MDA-MB-231 human breast cancer cells; assay: Membrane Invasion Culture System (MICS) chemo-invasion assay; type: cell-based; settings: 24 hours, + = increased invasiveness
Excerpt: (§1) Another objective was to analyze the effects of specific, tetracycline derived compounds on the in-vitro chemo-invasive potential of: • C8161 human melanoma cells • MDA-MB-231 human breast cancer cells • PC3 human prostate cancer cells • RPM18226 human myeloma cancer cells • Ark human myeloma cancer cells • Arp-1 human myeloma cancer cells
(§2) The Membrane Invasion Culture System (MICS) in vitro chemo-invasion assay was chosen to measure changes in the invasive potential of specific human cancer cells in response to tetracycline derived compounds. Stock solutions of each compound were hydrated in water containing 2% DMSO and pH 10.0. Upon solubilization, HCl was added to the solution to establish a pH of 7.5–8.0. This solution was then wrapped in foil and kept at 4° C. during the 24 hours of assay. Fresh compound was prepared for each assay. The in vitro chemoinvasion analyses for tumor cell invasiveness are performed using the Membrane Invasion Culture System (MICS) as previously described.
(§3) The MICS system is a thermally treated plastic manifold system consisting of two matched sets of plates containing fourteen wells, 13 mm in diameter. Interposed between these plates was a polycarbonate filter containing 10 μm pores and coated with a defined matrix composed of human laminin/collagen IV/gelatin that formed a 35 μm thick barrier between the top and bottom sections of the wells in MICS. Prior to placing this barrier in place, the lower wells were filled with serum-free RPMI culture medium made 50% in conditioned medium obtained from 2-day-old cultures of human fibroblasts which had been cleared of cells and cellular debris by either centrifugation, or filtering through a 0.45 μm sterile filter. The barrier was then placed on the lower wells and fresh serum-free medium added to the upper wells after assembly of the system. Fifty thousand tumor cells were then added to the wells either in the presence of the compound, or the DMSO vehicle (the controls). Of the 12 assay wells on each manifold, 3 randomized wells acted as controls, 3 wells received 1 μg/ml of compound, 3 received 10 μg/ml and 3 received 25 μg/ml. After 24 hours, cells and media were removed from the lower wells and replaced by phosphate buffered saline plus 2 mM EDTA. This solution was used to remove all cells from the lower well, and this wash was added to the recovered cells plus medium from the same well. These samples were then collected onto a polylysine containing polycarbonate membrane containing 3 μm pores using a Dot-Blot manifold system. These collection filters were then fixed in methanol, and stained using Wright's stain (Leukostat staining kit) in situ. The filters were then mounted on microscope slides with microscope immersion oil (which reduced the light refraction from the pores) and 5 microscopic fields were counted to calculate the number of cells which invaded through the membrane over the 24 hour period. These numbers were then statistically analyzed as discussed below.

[7] = tested on: PC-3 ML human prostate cancer cells; assay: as above; type: cell-based; settings: 24 hours, + = increased invasiveness
Excerpt: as §1, §2, §3

[8] = tested on: RPMI-8226 human myeloma cancer cells; assay: as above; type: cell-based; settings: 24 hours, + = increased invasiveness
Excerpt: as §1, §2, §3

[9] = tested on: C8161 human melanoma cells; assay: as above; type: cell-based; settings: 24 hours, + = increased invasiveness
Excerpt: as §1, §2, §3

Human recombinant MMP3, sequence (P08254 100-477): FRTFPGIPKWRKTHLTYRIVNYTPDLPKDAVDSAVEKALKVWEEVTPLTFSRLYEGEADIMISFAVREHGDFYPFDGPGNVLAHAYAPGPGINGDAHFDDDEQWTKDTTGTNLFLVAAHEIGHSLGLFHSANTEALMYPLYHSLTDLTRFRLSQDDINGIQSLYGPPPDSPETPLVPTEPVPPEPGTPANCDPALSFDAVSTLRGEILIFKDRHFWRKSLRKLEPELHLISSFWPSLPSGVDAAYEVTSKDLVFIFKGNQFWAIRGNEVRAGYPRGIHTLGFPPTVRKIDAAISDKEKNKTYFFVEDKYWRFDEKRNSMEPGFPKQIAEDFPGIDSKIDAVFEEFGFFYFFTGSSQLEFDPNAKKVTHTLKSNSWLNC
Human recombinant MMP9, sequence (P14780 94-707): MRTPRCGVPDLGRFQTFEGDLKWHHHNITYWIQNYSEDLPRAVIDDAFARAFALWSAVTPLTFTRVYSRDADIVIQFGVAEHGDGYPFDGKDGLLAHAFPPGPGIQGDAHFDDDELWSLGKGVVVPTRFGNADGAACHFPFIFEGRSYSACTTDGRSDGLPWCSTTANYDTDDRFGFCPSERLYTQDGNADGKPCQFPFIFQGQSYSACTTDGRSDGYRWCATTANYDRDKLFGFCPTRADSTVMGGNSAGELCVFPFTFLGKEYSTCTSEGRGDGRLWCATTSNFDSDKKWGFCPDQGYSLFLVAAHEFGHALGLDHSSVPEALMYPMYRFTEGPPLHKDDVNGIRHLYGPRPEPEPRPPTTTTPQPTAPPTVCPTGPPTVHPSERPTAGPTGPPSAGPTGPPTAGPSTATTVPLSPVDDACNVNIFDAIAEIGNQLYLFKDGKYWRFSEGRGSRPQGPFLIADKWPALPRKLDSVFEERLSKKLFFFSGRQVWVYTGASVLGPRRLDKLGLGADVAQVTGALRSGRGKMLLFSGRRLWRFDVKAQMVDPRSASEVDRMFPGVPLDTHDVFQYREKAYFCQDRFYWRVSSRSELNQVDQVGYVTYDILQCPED

SMILES	IC50 [1] [µM]	IC50 [2] [µM]	IC50 [3] [µM]	IC50 [4] [µM]	IC50 [5] [µM]	percent inhibition, MDA-MB-231 (Breast) ([6]; 25 ug/mL)	percent inhibition, PC-3 ML (Prostrate) ([7]; 1 ug/mL)	percent inhibition, PC-3 ML (Prostrate) ([7]; 10 ug/mL)	percent inhibition, PC-3 ML (Prostrate) ([7]; 25 ug/mL)	percent inhibition, RPMI-8226 (Multiple Myeloma) ([8]; 1 ug/mL)	percent inhibition, RPMI-8226 (Multiple Myeloma) ([8]; 10 ug/mL)	percent inhibition, RPMI-8226 (Multiple Myeloma) ([8]; 25 ug/mL)	percent inhibition, C8161 (Melanoma) ([9]; 1 ug/mL)	percent inhibition, C8161 (Melanoma) ([9]; 10 ug/mL)	percent inhibition, C8161 (Melanoma) ([9]; 25 ug/mL)	percent inhibition, MDA-MB-231 (Breast) ([6]; 1 ug/mL)	percent inhibition, MDA-MB-231 (Breast) ([6]; 10 ug/mL)
CC(C)CN(C)c1ccc(O)c2c1C(C)C1C(=C(O)C3(O)C(=O)C(C(N)=O)=C(O)C(N(C)C)C3C1O)C2=O (stereo not shown) [Compound 27, 7-Isobutylmethylamino-6-deoxy-5-hydroxytetracycline H2SO4]	498	963	149	101	92	72^B percent and 48^B percent	17^B percent and 9%	35^B percent and 56^B percent	70%	24^B percent and 20%	6% and 9%						
CC(=O)OC1C2C(=C(O)C3(O)C(=O)C(C(N)=O)=C(O)C(N(C)C)C13)C(=O)c1c(O)cccc1C2C (stereo not shown) [Compound 28, 6-Deoxy-5-acetoxy-tetracycline H2SO4]	> 1000	> 1000	231	125	49	54^B percent and 45^B percent			80% and 61%	4% and 5%		34^B percent and 62^B percent					
CC(=O)N(CC(C)C)c1ccc(O)c2c1C(C)C1C(=C(O)C3(O)C(=O)C(C(N)=O)=C(O)C(N(C)C)C3C1O)C2=O.O=S(=O)(O)O (stereo not shown) [Compound 29, 7-Acetylisobutylamino-6-deoxy-5-hydroxytetracycline H2SO4]	895	983	213	172	98				58% and 69%		12% and 13%						
CC1c2ccc([N+]#N)c(O)c2C(=O)C2=C(O)C3(O)C(=O)C(C(N)=O)=C(O)CC3C(O)C21.O=S(=O)([O-])O (stereo not shown) [Compound 37, 4-Dedimethylamino-6-deoxy-5-hydroxytetracycline-9-diazonium sulfate]	279	> 1000	274	445	41	46^B percent	11%	26%	36%	10%	5%	46^B percent	+1%	20%	69^B percent	+6%	1%
CC1c2ccc(C(C)(C)C)c(O)c2C(=O)C2=C(O)C3(O)C(=O)C(C(N)=O)=C(O)C(N(C)C)C3C(O)C21 (stereo not shown) [Compound 39, 9-tertbutyl-6-deoxy-5-hydroxytetracycline H2SO4]	860	186	682	114	83	76^B percent	44^B percent	67^B percent	69^B percent	5%	10%	46^B percent	10%	11%	24%	18^B percent	29^B percent
CN(C)c1ccc(O)c2c1CC1CC3CC(O)=C(C(N)=O)C(=O)C3(O)C(O)=C1C2=O (stereo not shown) [Compound 41, 4-Dedimethylamino-7-dimethylamino-6-demethyl-6-deoxy-tetracycline H2SO4]	478	889	54	250	403	2%	+4%	4%	4%	7%	+6%	14%	2%	8%	6%	+8%	3%
CC1c2cccc(O)c2C(=O)C2=C(O)C3(O)C(=O)C(C(N)=O)=C(O)C([N+](C)(C)C)C3C(O)C21.[I-] (stereo not shown) [Compound 46, 6-deoxy-5-hydroxytetracycline-4-Methiodide]	194	3800	42	59	90	+1%	20%	16%	27^B percent	7%	+11%	12%	21%	7%	10%	20^B percent	+5%
CC1c2c(N(NC(=O)OCc3ccccc3)C(=O)OCc3ccccc3)ccc(O)c2C(=O)C2=C(O)C3(O)C(=O)C(C(N)=O)=C(O)C(N(C)C)C3C(O)C21.Cl (stereo not shown) [Compound 47, 7-(1,2-benzylcarboxyhydrazine)-6-deoxy-5-hydroxy-tetracycline HCl]	318	117	68	88	60	0%	3%	3%	5%	28%	18%	60^B percent	+30%	+4%	+2%	+17%	+16^B percent
